According to ChEMBL document CHEMBL3856247, “Wnt/β-catenin signaling plays an important role in the protective effects of FDP-Sr against oxidative stress induced apoptosis in MC3T3-E1 cell” (Bioorg Med Chem Lett, 2016):
Activity calls are given as the source filed them.

Tests used:
Rattus norvegicus [1] = assay: Protection against OVX-induced osteoporosis in osteoporosis rat model assessed as increase in bone mineral density of femur at 220 mg/kg/day after 3 months by dual X-ray absorptiometry; type: functional, organism-based
Rattus norvegicus [2] = assay: Protection against OVX-induced oxidative stress in osteoporosis rat model assessed as decrease in H2O2 level in serum at 220 mg/kg/day after 3 months by colorimetric assay; type: functional, organism-based
Rattus norvegicus [3] = assay: Protection against OVX-induced oxidative stress in osteoporosis rat model assessed as […] level in serum at 220 mg/kg/day after 3 months by colorimetric assay; type: functional, organism-based
[4] = Induction of Wnt/beta-catenin signaling pathway in […] cells assessed as protection against H2O2-induced oxidative stress in presence of Wnt/beta-catenin signaling pathway inhibitor XAV-939; type: cell-based
MC3T3-E1 [5] = assay: Increase in cell viability of […] cells at 1 mM after 48 hrs by MTT assay; type: functional, cell-based
Rattus norvegicus [6] = organism: Rattus norvegicus; assay: Cytotoxicity against […] cells assessed as effect on cell number at 2 mM after 48 hrs by MTT assay; type: toxicity, cell-based; conditions: mc3t3-e1, 48 h, 2000 µM
[7] = Induction of Wnt/beta-catenin signaling pathway in […] cells assessed as protection against H2O2-induced cell death at 0.5 to 2 mM pretreated with compound for 48 hrs followed by H2O2 treatment for 24 hrs by MTT assay; type: cell-based
[8] = Induction of Wnt/beta-catenin signaling pathway in […] cells assessed as protection against H2O2-induced cell death at 2 mM pretreated with compound for 48 hrs followed by H2O2 treatment for 24 hrs by MTT assay; type: cell-based
[9] = Induction of Wnt/beta-catenin signaling pathway in […] cells assessed as protection against H2O2-induced oxidative stress by measuring increase in ALP activity at 0.5 to 2 mM pretreated with compound for 48 hrs followed by H2O2 treatment for 24 hrs; type: cell-based
[10] = Induction of Wnt/beta-catenin signaling pathway in […] cells assessed as protection against H2O2-induced oxidative stress by measuring increase in ALP activity at 2 mM pretreated with compound for 48 hrs followed by H2O2 treatment for 24 hrs; type: cell-based
[11] = (§1) Induction of Wnt/beta-catenin signaling pathway in […] cells assessed as protection against H2O2-induced oxidative stress by measuring increase in mineralization at 0.5 to 2 mM pretreated with compound for 48 hrs followed by H2O2 treatment for 24 hrs; type: cell-based
[12] = Induction of Wnt/beta-catenin signaling pathway in […] cells assessed as protection against H2O2-induced oxidative stress by measuring increase in mineralization at 2 mM pretreated with compound for 48 hrs followed by H2O2 treatment for 24 hrs; type: cell-based
[13] = as §1, with “increase in onc mRNA expression at 0.5” for “increase in mineralization at 0.5”, “24 hrs by immunofluorescence staining method” for “24 hrs”; type: cell-based
[14] = Induction of Wnt/beta-catenin signaling pathway in […] cells assessed as protection against H2O2-induced oxidative stress by measuring increase in onc mRNA expression at 2 mM pretreated with compound for 48 hrs followed by H2O2 treatment for 24 hrs by immunofluorescence staining method; type: cell-based
[15] = (§2) Induction of Wnt/beta-catenin signaling pathway in […] cells assessed as protection against H2O2-induced oxidative stress by measuring Runx2 activation at 0.5 to 2 mM pretreated with compound for 48 hrs followed by H2O2 treatment for 24 hrs by Western blot analysis; type: cell-based
MC3T3-E1 [16] = assay: Protection against H2O2-induced apoptosis in […] cells assessed as decrease in nuclear condensation pretreated with compound for 48 hrs followed by H2O2 treatment for 24 hrs by DAPI staining based confocal laser scanning microscopy; type: functional, cell-based
MC3T3-E1 [17] = assay: Protection against H2O2-induced apoptosis in rat MC3T3-E1 cells assessed as decrease in nuclear fragmentation pretreated with compound for 48 hrs followed by H2O2 treatment for 24 hrs by DAPI staining based confocal laser scanning microscopy; type: functional, cell-based
MC3T3-E1 [18] = assay: Protection against H2O2-induced apoptosis in rat MC3T3-E1 cells assessed as inhibition of caspase 3 activation using Ac-DEVD-pNA as substrate pretreated with compound for 48 hrs followed by H2O2 treatment for 24 hrs; type: functional, cell-based
MC3T3-E1 [19] = assay: Protection against H2O2-induced apoptosis in rat MC3T3-E1 cells assessed as inhibition of caspase 3 mRNA level pretreated with compound for 48 hrs followed by H2O2 treatment for 24 hrs by quantitative real-time PCR method; type: functional, cell-based
[20] = as §2, with “decrease in phosphorylated beta-catenin expression” for “Runx2 activation”; type: cell-based
[21] = as §2, with “decrease in phosphorylated beta-catenin expression” for “Runx2 activation”, “1.5” for “0.5 to 2”; type: cell-based
[22] = Induction of Wnt/beta-catenin signaling pathway in […] cells assessed as protection against H2O2-induced oxidative stress by measuring OPG activation at 0.5 to 2 mM pretreated with compound for 48 hrs followed by H2O2 treatment for 24 hrs by Western blot analysis; type: cell-based
[23] = Induction of Wnt/beta-catenin signaling pathway in […] cells assessed as protection against H2O2-induced oxidative stress by measuring ALP activation at 0.5 to 2 mM pretreated with compound for 48 hrs followed by H2O2 treatment for 24 hrs by Western blot analysis; type: cell-based
Rattus norvegicus [24] = organism: Rattus norvegicus; assay: Cytotoxicity against […] cells assessed as effect on cell number at 1 mM after 48 hrs by MTT assay; type: toxicity, cell-based; conditions: mc3t3-e1, 48 h, 1000 µM

Measured: Activity

O.O.O.O.O.O.O.O.O=P([O-])([O-])OCC1(O)O[C@H](COP(=O)([O-])O)[C@@H](O)[C@@H]1O.[Na+].[Na+].[Na+] (some centres undefined) [FOSFRUCTOSE TRISODIUM]
Non-Toxic: Rattus norvegicus [6]
not listed: Rattus norvegicus [24]
active: all other assays above

CC(=O)N[C@@H](CS)C(=O)O [ACETYLCYSTEINE]
Non-Toxic: Rattus norvegicus [24]
